Experimental data as given in patent publication US20200190592A1, “PME-1 AS A BIOMARKER TO PREDICT AND DIAGNOSE AN INCREASED RISK OF ENDOMETRIAL CANCER AND GENE SILENCING OF PME-1 TO INHIBIT EPITHELIAL TO MESENCHYMAL TRANSITION” (Medical Diagnostic Laboratories, L.L.C., priority 2018, published 2020).
One block for each compound: values may come before it.

Legend:
recombinant PME-1_des3 = biological target: T1, recombinant PME-1_des3 (Homo sapiens, UniProt Q9Y570); experiment: Thermal melt (thermal shift) assay; format: binding
T1 sequence (Q9Y570 1-383 limits assumed): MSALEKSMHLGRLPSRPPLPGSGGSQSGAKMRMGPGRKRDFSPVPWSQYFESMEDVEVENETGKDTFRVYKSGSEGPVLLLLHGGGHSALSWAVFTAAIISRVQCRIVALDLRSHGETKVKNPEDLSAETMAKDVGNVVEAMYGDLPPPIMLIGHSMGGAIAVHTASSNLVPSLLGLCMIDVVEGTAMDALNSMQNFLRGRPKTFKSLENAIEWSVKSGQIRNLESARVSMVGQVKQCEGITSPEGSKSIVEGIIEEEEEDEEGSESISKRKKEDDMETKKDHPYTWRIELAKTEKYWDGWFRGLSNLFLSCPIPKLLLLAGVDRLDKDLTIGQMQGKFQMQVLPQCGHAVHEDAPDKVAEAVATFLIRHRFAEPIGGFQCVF
Description: There are several commercially available covalent PME-1 inhibitors that we have analyzed as potential endometrial cancer therapeutics. To confirm that the inhibitors directly bind PME-1, we completed a thermal melt assay. One micromole (1 μmole) of recombinant PME-1_des3, of which the last 3 amino acids are deleted, were pre-incubated with SYBR orange in the presence of 50 μM ABL-127 (a potent covalent PME-1 inhibitor, squares) or 0.05% DMSO (vehicle, circles) for 10 minutes (FIG. 25) at 37° C. We then performed a thermal gradient, increasing the temperature by 2° C. each minute from 37° C. to 95° C. and fluorescent signal was detected at 492-601 nm on a thermal cycler. The increase in Tm from ˜55° C. (PME-1+DMSO, circles) to ˜65° C. (PME-1+ABL-127, squares) indicated thermal stabilization of the PME-1 protein via direct binding of the ABL-127 inhibitor (FIG. 25).
The assay was completed by first conducting a 10 min pre-incubation of one μmole of recombinant PME-1des3 with 50 μM ABL127 (Sigma) or vehicle (0.05% DMSO) in the presence of SYBR Orange (1:1,000, v/v, Sigma) at 37° C. in 1×NEB buffer 2 (50 mM NaCl, 10 mM Tris-HCl, 10 mM MgCl2, 1 mM DTT, pH 7.9 at 25° C.), a thermal gradient was performed increasing temperature by 2° C. per minute increments from 37° to 95° C. and fluorescence (492 nm-610 nm) was acquired on a thermal cycler Mx3005P (Stratagene).

[1] = system: Ishikawa endometrial cancer cells; experiment: Foci formation assay in Ishikawa cells; format: cell-based, human; settings: DMSO set to 100%
Description: This study was completed in Ishikawa endometrial cancer cells.
1,000 cells were plated in a six well tissue culture dish in selection media (to include 5 μg/ml puromycin) (InvivoGen). Cells were allowed to adhere and grow in a 5% CO2, 37° C. incubator for 10 to 14 days. […] Cells were stained with 1% crystal violet (Sigma Aldrich) for five minutes and rinsed with PBS. Colonies were counted and data is presented as the percentage of change compared to the control. All Experiments were repeated at least three times.

Ishikawa cells = experiment: Trans-well migration assay; format: cell-based, human; settings: 24 hr, through collagen towards 30% FBS, vs DMSO
Description: We next asked if PME-1 inhibition led to decreased cell migration by completing a trans-well migration assay. Cells were synchronized for 24 hours in media containing 0% FBS. For this experiment, DMSO was again used as the vehicle control and Ishikawa cells were treated with DMSO (control) or 50 nM ABL-127 or 20 μM AMZ-30 for 24 hr and were allowed to migrate through a collagen-coated well towards the bottom chamber, containing media with 30% FBS.
The assay was completed with ECC-1 endometrial carcinoma cell lines following kit instructions Cultrex 96 Well Collagen IV Cell Invasion Assay (cat #3458-096-K). Briefly, cells were serum starved for 24 hours prior to experimentation, then counted and put into the top chamber of a collagen type IV coated Transwell membrane at a concentration of 1×10^6 cells/well in 0% FBS. The bottom chamber contained 30% FBS. Cells were allowed to invade at 37° C. humid chamber incubator for 24 hours. Cells that invaded were analyzed using the kit provided Calcein-AM and fluorescence was read using FluoStar Galaxy.

[2] = biological target: protein phosphatase 2A (PP2A), endogenous in RL95-2 cells; experiment: cell-based or functional assay
RL95-2 cells [3] = experiment: Foci forming assay in RL95-2 cells; format: cell-based, human
Description: A foci forming assay was used in this study to monitor cell growth. Equal amounts of cells were plated and they were allowed to grow for a determined period of time (see Materials and Methods section for details). The foci that were formed were then stained with the crystal violet dye. Cells were washed […] with PBS prior to visualization. Numbers of foci were counted and results were averaged among different experiments.
To determine if the loss of active PME-1 accounted for the observed decrease in foci formation, we first treated RL95-2 cells with siRNA against the 3′-UTR of PPME1 to decrease endogenous levels of PME-1. […] The S156A PME-1 mutant is not capable of demethylating its target, PP2A.
1,000 cells were plated in a six well tissue culture dish in selection media (to include 5 μg/ml puromycin) (InvivoGen). Cells were allowed to adhere and grow in a 5% CO2, 37° C. incubator for 10 to 14 days. Media was replaced every fourth day. Cells were stained with 1% crystal violet (Sigma Aldrich) for five minutes and rinsed with PBS. Colonies were counted and data is presented as the percentage of change compared to the control. All Experiments were repeated at least three times.

RL95-2 cells [4] = experiment: Colony forming / invasive growth assay in Matrigel; format: cell-based, human; settings: RL95-2 in Matrigel, addition of TGF-β (10 ng/ml)
Description: To determine if PME-1 contributes to the more invasive and metastatic phenotypes, we performed a colony forming assay in matrigel.
The 3D On Top Matrigel Assay was completed in 24 well dishes as described previously {Lee, 2007 #1577}. Briefly, the bottoms of 24 well dishes were coated with 50 μl BD Matrigel Basement Matrix Phenol Red Free (BD Biosciences cat. #356237) and allowed to solidify at 37° C. 10^5 cells were suspended in 250 μl chilled medium containing either 10 ng/ml of TGF-b or vehicle and allowed to settle at 37° C. for 30 minutes. Chilled medium containing 10% of Matrigel was added by pipetting gently down the sidewall of the well and incubated at 37° C. for ten days changing top medium every second day. Colony counts were performed on the tenth day, averages were taken from three fields of view using a 10× objective. Experiment was repeated three times.

PPME1 = experiment: qRT-PCR of PPME1 (PME-1) expression in RL95-2 cells; format: cell-based, human; settings: TGF-β 24 hours, control cells and +PME-1 cells, normalized to GAPDH
Description: In this study, we transfected RL95-2 cells to express empty vector (Control), over-expressing PME-1 (+PME-1) or expressing shRNA against PME-1 (−PME-1) followed by serum starvation for 24 hours. Afterwards, either vehicle or TGF-β treatment was performed at the end of the 24 hours. TGF-β was used to induce cells to initiate the EMT program. Gene expression analysis was conducted using quantitative real-time PCR.
Using RL95-2 endometrial cancer cells, we overexpressed PME-1 (FIG. 21A) or depleted PME-1 with shRNA (FIG. 21B) and confirmed that PME-1 was appropriately expressed.
Total RNA was extracted with Qiagen RNAEasy kit from RL95-2 cells. cDNA was synthesized using 500 ng-1 μg of RNA and SuperScript VILO c-DNA mix (Life Technologies). Taqman probes and PCR-mix were purchased from Life Technologies. All samples were run in triplicates. Results are representative of three independent experiments in which genes of interest were normalized to the house-keeping gene, 18S or GAPDH, where fold-change was calculated using the ddCt method.

PME-1 = experiment: Western blot of PME-1 protein in RL95-2 cells; format: cell-based, human; settings: GAPDH loading control
From the text: We prepared RL95-2 cell lines expressing empty vector (control), over-expressing PME-1 (+PME-1), or expressing shRNA against PPME1, the gene that codes for PME-1 protein (−PME-1). Using these cells, we confirmed the appropriate level of PME-1 via real-time RT-PCR (data not shown) and Western blot analysis (FIG. 8). GAPDH was used as a loading control.
We also prepared two different shRNAs targeted against PME-1.
Lentivirus was produced in HEK293T cell lines with pLKO shRN vectors (Thermo Scientific, cat. no. RHS4533; Waltham, Mass.) and pCDH-CuO-GFP-Puro vectors (System Biosciences, Inc., cat. no. QM513B-1; Mountain View, Calif.) with pPACKH1 packaging plasmid (System Biosciences, Inc., cat, no. LV050A-1). shRNA sequences are in the Table 2. Lentivirus was collected and concentrated with Peg-IT concentrating solution (System Biosciences, Inc.). 5×10^6 ifu/ml lentivirus was added to cell cultures with growth media and 8 μg/ml PolyBrene (Sigma Aldrich). Media was changed to full growth media after 24 hrs and to selection media containing antibiotic after 48 hrs (5 μg/ml puromycin) (Invivogen) for 10 days.
15 μg of protein was used for western analysis. […]

Compound: COC(=O)N1C(=O)C(c2ccccc2)(C2CCCC2)N1C(=O)OC (stereo in doubt) [ABL-127, (3R)-Dimethyl 3-cyclopentyl-4-oxo-3-phenyl-1,2-diazetidine-1,2,-dicarboxylate]
Tm (recombinant PME-1_des3; 50 μM ABL-127, 10 min pre-incubation at 37° C., PME-1+DMSO ˜55° C.): ~65 °C | melting temperature (Tm) and thermal stability of PME-1 (recombinant PME-1_des3; binding of ABL-127 vs vehicle): increases | decrease in the amount of foci formed ([1]; 50 nM every 2-3 days for 10 days): ~50% | percentage of cells capable of migrating (Ishikawa cells; 50 nM): dramatic decrease

Compound: N#C/C(=C\c1cccn1S(=O)(=O)c1cccc([N+](=O)[O-])c1)S(=O)(=O)c1ccc(F)cc1 [AMZ-30, (E)-2-(4-Fluorophenylsulfonyl)-3-(1-(3-nitrophenylsulfonyl)-1H-pyrrol-2-yl)-acrylonitrile]
decrease in the amount of foci formed ([1]; 25 μM every 2-3 days for 10 days): ~50% | percentage of cells capable of migrating (Ishikawa cells; 20 μM): dramatic decrease

PP2A activity (phosphatase assay) after shRNA depletion of PME-1 in RL95-2 cells [2]: 30 fold
Compound: PME-1 (endogenous, RL95-2 cells) (from UniProt Q9Y570 2-386) (enzyme)

PP2A activity (phosphatase assay) after over-expression of PME-1 in RL95-2 cells [2]: 90 % decrease
Compound: PME-1 over-expressed in RL95-2 cells (+PME-1) (from UniProt Q9Y570 1-386) (enzyme)

Compound: PPME1 siRNA no. 2: siRNA, SEQ ID NO: 5: GTG GAT AGC ATC ACA AGA A, targets 3′-UTR (guide GTGGATAGCATCACAAGAA; listed as DNA, chemistry not given here; listed as Homo sapiens)
decrease in foci formed (RL95-2 cells [3]; RL95-2, siRNA followed by empty vector, vs control siRNA with empty vector): 40% | reduction in foci formation (RL95-2 cells [3]; RL95-2, siRNA plus over-expressed S156A mutant PME-1): 40%

Compound: TGF-β [reference compound]
colony number (RL95-2 cells [4]): overall decrease | increase in PME-1 expression (PPME1): ~2 fold

Compound: shPPME1 no. 1: shRNA targeting PPME1, SEQ ID NO: 1: GTACAGCTATGGATGCACTTA, bp 554-574 (guide GTACAGCTATGGATGCACTTA; listed as Homo sapiens)
PME-1 levels via Western blot analysis (PME-1): significantly decreased
